Experimental data as given in patent US20100210554A1, “THERAPEUTIC USES OF GASTRIN- 1 AND G- PEN-GRGDSPCA” (priority 2007, published 2010).

Experiments:
[1] = system: HIV-1IIIB; test: HIV-1 antiviral assay in CEM-SS cells (MTS readout)
[2] = system: hepatitis B virus (HBV) ayw strain; test: HBV experimental assay system (HepG2-2.2.15, TaqMan PCR of secreted HBV DNA); type: cell-based; details: 10 micrograms per ml, six days
[3] = system: TNF-a spleen cells; test: Th1/Th2 cytokine profiling assay: TNF-a; type: cell-based, Balb/c mice; details: 10 micrograms per ml; Ovalbumin restimulation; 72 hours
Source text: (§1) The Balb/c mice (originated in 1923, it is a popular strain and is used in many different research disciplines. Also classified as an inbred from the production of 20 or more successive brother-sister matings, the Balb/c mouse is albino and small in size) were immunized on Days 1, 15, and 29 with Ovalbumin (Ovalbumin is the main protein found in egg white, commonly used to stimulate an immunological reaction in test animals) in PBS (5 micrograms/injection). On day 50, spleens of the mice were harvested (3 weeks after last boost with Ovalbumin). […] Thereafter, additional Ovalbumin was added to the cells at 10 micrograms/ml for in vitro restimulation of the cells. 72 hours later, cell supernatants were harvested and assayed using the Becton Dickinson Mouse Th1/Th2 Cytokine CBA Kit. This kit can be used to measure Interleukin-2 (IL-2), Interleukin-4 (IL-4),
(§2) Interleukin-5 (IL-5), Interferon-γ (IFN-γ), and Tumor Necrosis Factor-α (TNF-α) protein levels in a single sample. The kit performance has been optimized for analysis of physiologically relevant concentrations (pg/ml levels) of specific cytokine proteins in tissue culture supernatants and serum samples.

[4] = system: IFNγ spleen cells; test: Th1/Th2 cytokine profiling assay: IFNγ; type: cell-based, Balb/c mice; details: 10 micrograms per ml; Ovalbumin restimulation; 72 hours
Source text: as §1, §2

[5] = system: IL-2 spleen cells; test: Th1/Th2 cytokine profiling assay: IL-2; type: cell-based, Balb/c mice; details: 10 micrograms per ml; Ovalbumin restimulation; 72 hours
Source text: as §1, §2

[6] = system: IL-4 spleen cells; test: Th1/Th2 cytokine profiling assay: IL-4; type: cell-based, Balb/c mice; details: 10 micrograms per ml; Ovalbumin restimulation; 72 hours
Source text: as §1, §2

[7] = system: IL-5 spleen cells; test: Th1/Th2 cytokine profiling assay: IL-5; type: cell-based, Balb/c mice; details: 10 micrograms per ml; Ovalbumin restimulation; 72 hours
Source text: as §1, §2

[8] = system: Primary Human endothelial cells (HUVEC); test: Endothelial cell migration assay; details: 10 micrograms per ml, 22 hours
Description: Primary Human endothelial cells (HUVEC) were seeded in insert chambers with 3 micrometer pore size of multi-transwell plate for 6 hours at 37° C. in Endothelial Cell Basal Medium (EBM) supplemented with 0.1% bovine serum albumin. Thereafter, designated concentration of testing peptides—10 micrograms per ml—was added in duplicate wells. The endothelia were allowed to migrate for 22 hours at 37° C., then, migrated cells were fixed and stained with Hoechst 33342 dye. Images of 3 fields per insert were taken and the number of migrated cells per field were quantified using the ImageProPlus software. Data were analyzed for the average number of the migrated cells and standard deviation of six data points for each treatment condition. […] Statistic p values were computed using the Student's t-test.

[9] = system: HUVEC; test: Endothelial tube formation assay; details: 10 micrograms per ml, 20 hours, combination peptide 1:peptide 2 0.95 mole:1.05 mole
Description: The endothelial tube formation assay is based on the ability of endothelial cells to form three-dimensional capillary-like tubular structures when cultured on a gel of basement membrane extract. […] Pre-labeled HUVEC with Calcein AM were seeded in a 96-well culture plate coated with extracellular metrix (Chemicon international Cat. ECM625) and treated with test peptides—10 micrograms per ml—in full growth medium. Positive control was vehicle only. The endothelial cells were allowed to form tubes foe 20 hours and were then examined under an inverted fluorescent microscope. Duplicate wells for each treatment were photographed and quantitatevily analyzed for an average tubule length using image analysis software ImageProPlus. Raw data were expressed as average tubule lengths in pixels ±standard deviation. Statistic p values were computed using the Student's t-test.

[10] = system: HCMV strain AD169; test: HCMV plaque formation assay in MRC-5 cells; details: for inhibition of HCMV plaque formation as compared to the virus control experiment: 10 micrograms per ml, 7-10 days

Row | Compound | antiviral activity of positive control compounds (HIV-1) [1] | inhibition of HBV replication as compared to the virus control infection [2] | TNF-a spleen cells; TH1 response (% of control) [3] | IFNγ spleen cells; TH1 response (% of control) [4] | IL-2 spleen cells (% of control) [5] | IL-4 spleen cells; TH2 response (% of control) [6] | IL-5 spleen cells; TH2 response (% of control) [7] | inhibition of the migration of human endothelial cells [8] | inhibition of the tube formation of endothelial cells [9] | inhibition of HCMV plaque formation as compared to the virus control experiment [10] | antiviral activity of positive control compound (HCMV) ([10]; positive control)
1 | CC(C)(C)NC(=O)[C@@H]1CN(Cc2cccnc2)CCN1C[C@@H](O)C[C@@H](Cc1ccccc1)C(=O)N[C@H]1c2ccccc2C[C@H]1O [indinavir] | expected levels of antiviral activity |  |  |  |  |  |  |  |  |  | 
2 | Cc1cn([C@H]2C[C@H](N=[N+]=[N-])[C@@H](CO)O2)c(=O)[nH]c1=O [AZT] | expected levels of antiviral activity |  |  |  |  |  |  |  |  |  | 
3 | Pyr-Gly-Pro-Trp-Leu-Glu-Glu-Glu-Glu-Glu-Ala-Tyr-Gly-Trp-Met-Asp-Phe-NH2 [peptide 1] |  | 17.4% | 106.3 % of control | 52.4 % of control | 101.6 % of control | 61.5 % of control | 61.2 % of control | 30% | 35% | did not inhibit | 
4 | Nc1nc(O)c2ncn(COC(CO)CO)c2n1 [Ganciclovir, reference compound] |  |  |  |  |  |  |  |  |  |  | expected levels of antiviral activity
5 | Gly-Pen-Gly-Arg-Gly-Asp-Ser-Pro-Cys-Ala-OH [peptide 2] |  | 23.9% | 117.6 % of control | 77.3 % of control | 110.7 % of control | 117.2 % of control | 55.0 % of control | 51% | 22% | did not inhibit | 
